pEC50: −log10 of the molar value.
Target: T1, human mAChR M4 (Homo sapiens, UniProt P08173)
T1 construct: expressed in transfected cells
T1 sequence (P08173 1-479): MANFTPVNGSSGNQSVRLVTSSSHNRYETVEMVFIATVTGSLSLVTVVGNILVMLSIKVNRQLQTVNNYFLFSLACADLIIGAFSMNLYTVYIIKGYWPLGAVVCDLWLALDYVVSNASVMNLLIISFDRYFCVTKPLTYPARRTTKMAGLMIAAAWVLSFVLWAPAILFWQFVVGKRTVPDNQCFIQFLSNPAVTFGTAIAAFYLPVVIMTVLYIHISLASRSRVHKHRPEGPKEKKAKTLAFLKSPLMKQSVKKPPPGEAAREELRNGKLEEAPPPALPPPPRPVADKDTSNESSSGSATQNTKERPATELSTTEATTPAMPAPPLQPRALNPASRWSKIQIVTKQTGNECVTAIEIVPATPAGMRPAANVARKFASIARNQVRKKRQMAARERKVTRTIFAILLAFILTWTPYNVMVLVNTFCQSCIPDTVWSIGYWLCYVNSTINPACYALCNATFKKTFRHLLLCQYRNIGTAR
Test: mAChR M4 cell-based functional assay (calcium mobilization, CHO-K1 hM4-Gqi5 cells)
Settings: for pEC50: positive allosteric modulator activity, increase in the EC20 acetylcholine response, CHO-K1 hM4-Gqi5 cells, read-out: Human M4 EC50; for Emax at 30 µM: CHO-K1, % ACh maximum at 30 μM, human M4
Summary of the method: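 Fluorescent calcium read-out (Fluo-4 AM, FDSS, 1 Hz) in hM4-Gqi5 CHO-K1 cells, 11-point 1:3 compound series. Agonism scored on compound addition, PAM activity as increase of the 144 s EC20 acetylcholine response, antagonism as decrease of the 230 s EC80 response; four-parameter logistic fits give EC50 and Emax.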

pEC50	Emax at 30 µM [%]	Structure (SMILES)
6.43	–	Clc1nc2c(c(N3CCc4ncc(N5CCOc6ncccc65)cc4C3)n1)COC2 [compound 283, 1-(6-(2-chloro-5,7-dihydrofuro[3,4-d]pyrimidin-4-yl)-5,6,7,8-tetrahydro-1,6-naphthyridin-3-yl)-2,3-dihydro-1H-pyrido[2,3-b][1,4]oxazine]
5.91	30	Cc1nn(C)cc1-c1cnc2c(c1)CN(c1nc(Cl)nc3c1COC3)CC2 [compound 285, 2-chloro-4-(3-(1,3-dimethyl-1H-pyrazol-4-yl)-7,8-dihydro-1,6-naphthyridin-6(5H)-yl)-5,7-dihydrofuro[3,4-d]pyrimidine]
6.30	33	Clc1nc2c(c(N3CCc4ncc(-c5cnn(C6CC6)c5)cc4C3)n1)COC2 [compound 286, 2-chloro-4-(3-(1-cyclopropyl-1H-pyrazol-4-yl)-7,8-dihydro-1,6-naphthyridin-6(5H)-yl)-5,7-dihydrofuro[3,4-d]pyrimidine]
6.23	–	Clc1nc2c(c(N3CCc4ncc(C5CC5)cc4C3)n1)COC2 [compound 287, 2-chloro-4-(3-cyclopropyl-7,8-dihydro-1,6-naphthyridin-6(5H)-yl)-5,7-dihydrofuro[3,4-d]pyrimidine]
5.92	–	Cn1nccc1Nc1cnc2c(c1)CN(c1nc(Cl)nc3c1COC3)CC2 [compound 288, 6-(2-chloro-5,7-dihydrofuro[3,4-d]pyrimidin-4-yl)-N-(1-methyl-1H-pyrazol-5-yl)-5,6,7,8-tetrahydro-1,6-naphthyridin-3-amine]
6.04	–	Fc1ncccc1Nc1cnc2c(c1)CN(c1nc(Cl)nc3c1COC3)CC2 [compound 289, 6-(2-chloro-5,7-dihydrofuro[3,4-d]pyrimidin-4-yl)-N-(2-fluoropyridin-3-yl)-5,6,7,8-tetrahydro-1,6-naphthyridin-3-amine]
6.00	–	Fc1ccccc1Oc1cnc2c(c1)CN(c1nc(Cl)nc3c1COC3)CC2 [compound 290, 2-chloro-4-(3-(2-fluorophenoxy)-7,8-dihydro-1,6-naphthyridin-6(5H)-yl)-5,7-dihydrofuro[3,4-d]pyrimidine]
7.06	96	Cc1cc(C#N)cnc1N1CCc2ncc(-c3ccns3)cc2C1 [compound 291, 6-(3-(isothiazol-5-yl)-7,8-dihydro-1,6-naphthyridin-6(5H)-yl)-5-methylnicotinonitrile]
6.79	86	Cc1c(C#N)nnc(N2CCc3ncc(-c4ccns4)cc3C2)c1C [compound 292, 6-(3-(isothiazol-5-yl)-7,8-dihydro-1,6-naphthyridin-6(5H)-yl)-4,5-dimethylpyridazine-3-carbonitrile]
6.45	85	Cc1ncc(-c2cnc3c(c2)CN(c2nnc(C#N)c(C)c2C)CC3)s1 [compound 293, 4,5-dimethyl-6-(3-(2-methylthiazol-5-yl)-7,8-dihydro-1,6-naphthyridin-6(5H)-yl)pyridazine-3-carbonitrile]
6.53	83	Cc1nc(C)c(-c2cnc3c(c2)CN(c2nnc(C#N)c(C)c2C)CC3)s1 [compound 294, 6-(3-(2,4-dimethylthiazol-5-yl)-7,8-dihydro-1,6-naphthyridin-6(5H)-yl)-4,5-dimethylpyridazine-3-carbonitrile]
6.31	95	Cc1nn(C)cc1-c1cnc2c(c1)CN(c1nnc(C#N)c(C)c1C)CC2 [compound 295, 6-(3-(1,3-dimethyl-1H-pyrazol-4-yl)-7,8-dihydro-1,6-naphthyridin-6(5H)-yl)-4,5-dimethylpyridazine-3-carbonitrile]
